We go through ten molecules from patent publication US20160297833A1, “THIENOPYRIMIDINES AS MKNK1 AND MKNK2 INHIBITORS” (BAYER PHARMA AKTIENGESELLSCHAFT, priority 2013, published 2016).

SMILES strings stand for the structures.

The experiment deals with T1, human full-length MKNK1 (Homo sapiens, UniProt Q9BUB5, T385D).
T1 construct: GST (N); purchased Carna Biosciences 02-145; host or cells: insect cells (baculovirus expression system)
T1 sequence (Q9BUB5 1-424 isoform Q9BUB5-2 T344D): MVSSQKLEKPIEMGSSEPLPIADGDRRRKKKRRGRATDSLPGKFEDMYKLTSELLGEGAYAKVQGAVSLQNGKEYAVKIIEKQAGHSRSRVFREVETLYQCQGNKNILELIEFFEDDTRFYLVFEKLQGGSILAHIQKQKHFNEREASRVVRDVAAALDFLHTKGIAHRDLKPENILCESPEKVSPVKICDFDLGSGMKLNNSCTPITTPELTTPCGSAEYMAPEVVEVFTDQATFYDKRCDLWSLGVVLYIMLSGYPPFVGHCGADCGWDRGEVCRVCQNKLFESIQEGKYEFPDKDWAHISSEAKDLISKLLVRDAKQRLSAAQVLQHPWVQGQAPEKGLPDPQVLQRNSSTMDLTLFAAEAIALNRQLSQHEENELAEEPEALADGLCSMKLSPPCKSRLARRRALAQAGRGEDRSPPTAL
Description: MKNK1 kinase high ATP assay (TR-FRET). The format is biochemical. To be noted: Table 1; MKNK1 kinase high ATP assay, 2 mM ATP; read-out: MKNK1 IC50. On the procedure: MKNK1 Kinase High ATP Assay
MKNK1-inhibitory activity at high ATP of compounds of the present invention after their preincubation with MKNK1 was quantified employing the TR-FRET-based MKNK1 high ATP assay as described in the following paragraphs.
As substrate for the kinase reaction the biotinylated peptide biotin-Ahx-[…] (C-terminus in amide form) was used, which can be purchased e.g. from the company Biosyntan (Berlin-Buch, Germany).
For the assay 50 nL of a 100 fold concentrated solution of the test compound in DMSO was pipetted into a black low volume 384 well microtiter plate (Greiner Bio-One, Frickenhausen, Germany), 2 μL of a solution of MKNK1 in aqueous assay buffer [50 mM HEPES pH 7.5, 5 mM MgCl2, 1.0 mM dithiothreitol, 0.005% (v/v) Nonidet-P40 (Sigma)] was added and the mixture was incubated for 15 min at 22° C. to allow pre-binding of the test compounds to the enzyme before the start of the kinase reaction. Then the kinase reaction was started by the addition of 3 μL of a solution of adenosine-tri-phosphate (ATP, 3.3 mM=>final conc. in the 5 μL assay volume is 2 mM) and substrate (0.1 μM=>final conc. in the 5 μL assay volume is 0.06 μM) in assay buffer and the resulting mixture was incubated for a reaction time of 30 min at 22° C. The concentration of MKNK1 was adjusted depending of the activity of the enzyme lot and was chosen appropriate to have the assay in the linear range, typical concentrations were in the range of 0.003 μg/mL. The reaction was stopped by the addition of 5 μL of a solution of TR-FRET detection reagents (5 nM streptavidine-XL665 [Cisbio Bioassays, Codolet, France] and 1 nM anti-ribosomal protein S6 (pSer236)-antibody from Invitrogen [#44921G] and 1 nM LANCE EU-W1024 labeled ProteinG [Perkin-Elmer, product no. AD0071]) in an aqueous EDTA-solution (100 mM EDTA, 0.1% (w/v) bovine serum albumin in 50 mM HEPES pH 7.5).
The resulting mixture was incubated for 1 h at 22° C. to allow the formation of complex between the phosphorylated biotinylated peptide and the detection reagents. Subsequently the amount of phosphorylated substrate was evaluated by measurement of the resonance energy transfer from the Eu-chelate to the streptavidine-XL. Therefore, the fluorescence emissions at 620 nm and 665 nm after excitation at 350 nm were measured in a TR-FRET reader, e.g. a Rubystar (BMG Labtechnologies, Offenburg, Germany) or a Viewlux (Perkin-Elmer). The ratio of the emissions at 665 nm and at 622 nm was taken as the measure for the amount of phosphorylated substrate.
For orientation: In TR-FRET formats the signal depends on donor and acceptor labels being close together.
Take `CN(C)C(=O)[C@H]1CCc2c(sc3ncnc(Nc4cc5cn[nH]c5cc4OC(F)(F)F)c23)C1` [Example 191, (7S)—N,N-Dimethyl-4-{[6-(trifluoromethoxy)-1H-indazol-5-yl]amino}-5,6,7,8-tetrahydro[1]benzothieno[2,3-d]pyrimidine-7-carboxamide]: the IC50 (in general, the concentration that inhibits the measured activity by half) is 1.4 nM.
On to `COc1cc2[nH]ncc2cc1Nc1ncnc2sc3c(c12)CC[C@H](C(=O)N1CC(C#N)C1)C3` [Example 35, 1-({(7S)-4-[(6-Methoxy-1H-indazol-5-yl)amino]-5,6,7,8-tetrahydro[1]benzothieno[2,3-d]pyrimidin-7-yl}carbonyl)azetidine-3-carbonitrile], for which the IC50 was found to be 0.7 nM.
Take `COC(=O)NC[C@@H](C)Oc1cc2[nH]ncc2cc1Nc1ncnc2sc3c(c12)CC[C@H](C(=O)N(C)C)C3` [Example 264, Methyl {(2R)-2-[(5-{[(7S)-7-(dimethylcarbamoyl)-5,6,7,8-tetrahydro[1]benzothieno[2,3-d]pyrimidin-4-yl]amino}-1H-indazol-6-yl)oxy]propyl}carbamate]: the IC50 stood at 1.2 nM.
The figure for `CN(CCC(F)(F)F)C(=O)[C@H]1CCc2c(sc3ncnc(Nc4cc5cn[nH]c5cc4N4CCCC4)c23)C1` [Example 245, (7S)—N-Methyl-4-{[6-(pyrrolidin-1-yl)-1H-indazol-5-yl]amino}-N-(3,3,3-trifluoropropyl)-5,6,7,8-tetrahydro[1]benzothieno[2,3-d]pyrimidine-7-carboxamide] is 0.6 nM.
In the case of `COc1cc2[nH]ncc2cc1Nc1ncnc2sc3c(c12)CC[C@@H](C(=O)N(C)CCO)C3` [Example 39, (7R)—N-(2-Hydroxyethyl)-4-[(6-methoxy-1H-indazol-5-yl)amino]-N-methyl-5,6,7,8-tetrahydro[1]benzothieno[2,3-d]pyrimidine-7-carboxamide] it was 9.4 nM.
Consider `CN(C)C(=O)[C@H]1CCc2c(sc3ncnc(Nc4cc5cn[nH]c5cc4OCCNCC(C)(C)C)c23)C1` [Example 275, (7S)-4-[(6-{2-[(2,2-Dimethylpropyl)amino]ethoxy}-1H-indazol-5-yl)amino]-N,N-dimethyl-5,6,7,8-tetrahydro[1]benzothieno[2,3-d]pyrimidine-7-carboxamide], for which the IC50 amounted to 4.4 nM.
The figure for `C[C@@H]1CN(C(=O)[C@H]2CCc3c(sc4ncnc(Nc5cc6cn[nH]c6cc5N(C)C)c34)C2)C[C@@H](C)O1` [Example 240, [(7S)-4-{[6-(Dimethylamino)-1H-indazol-5-yl]amino}-5,6,7,8-tetrahydro[1]benzothieno[2,3-d]pyrimidin-7-yl][(2R,6R)-2,6-dimethylmorpholin-4-yl]methanone] is 0.2 nM; for `C[C@H](N)COc1cc2[nH]ncc2cc1Nc1ncnc2sc3c(c12)CC[C@H](C(=O)N1CCOC[C@@H]1C)C3` [Example 143, {(7S)-4-[(6-{[(2S)-2-Aminopropyl]oxy}-1H-indazol-5-yl)amino]-5,6,7,8-tetrahydro[1]benzothieno[2,3-d]pyrimidin-7-yl}[(3S)-3-methylmorpholin-4-yl]methanone] it is 3 nM; for `O=C([C@H]1CCc2c(sc3ncnc(Nc4ccc5[nH]ncc5c4)c23)C1)N1CC2(COC2)C1` [Example 12, [(7S)-4-(1H-Indazol-5-ylamino)-5,6,7,8-tetrahydro[1]benzothieno[2,3-d]pyrimidin-7-yl](2-oxa-6-azaspiro[3.3]hept-6-yl)methanone] it is 22.7 nM.
In the case of `COc1cc2[nH]ncc2cc1Nc1ncnc2sc3c(c12)CC[C@H](C(=O)N(C)CC(=O)N(C)C)C3` [Example 52, (7S)—N-[2-(Dimethylamino)-2-oxoethyl]-4-[(6-methoxy-1H-indazol-5-yl)amino]-N-methyl-5,6,7,8-tetrahydro[1]benzothieno[2,3-d]pyrimidine-7-carboxamide] it was 0.2 nM.
